The target in the experiment is T1, human H3 receptors (Homo sapiens, UniProt Q9Y5N1).
T1 construct: host or cells: CHO-K1
T1 sequence (Q9Y5N1 whole entry): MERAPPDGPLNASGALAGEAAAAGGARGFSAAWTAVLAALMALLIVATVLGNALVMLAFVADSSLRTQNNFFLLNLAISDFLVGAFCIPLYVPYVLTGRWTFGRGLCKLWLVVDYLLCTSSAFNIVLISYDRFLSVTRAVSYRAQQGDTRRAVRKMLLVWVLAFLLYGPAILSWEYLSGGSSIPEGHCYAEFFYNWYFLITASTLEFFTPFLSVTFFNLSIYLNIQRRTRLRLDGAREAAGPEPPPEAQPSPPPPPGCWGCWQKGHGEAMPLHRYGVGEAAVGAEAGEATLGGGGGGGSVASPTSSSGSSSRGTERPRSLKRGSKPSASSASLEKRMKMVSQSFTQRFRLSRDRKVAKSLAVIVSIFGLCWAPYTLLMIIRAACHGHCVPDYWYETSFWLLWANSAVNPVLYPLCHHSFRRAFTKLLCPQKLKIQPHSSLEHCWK
Kind of experiment: cAMP quantification assay for human H3 receptor testing. The settings on record: CHO-K1 cells expressing human H3 receptors; inhibition of agonist-induced decrease of cAMP; 100 nM histamine, 10 μM forskolin; read-out: Potency range (IC50 values). Type of experiment: cell-based. Here is the method:
CHO—K1 cell line expressing human H3 receptors were purchased from Euroscreen (Gosselies, Belgium, Cat. no.: ES-392-C)
Human H3 receptor-expressing cell-lines were grown in Ham's F12 [Sigma, Cat. no. N6658], supplemented with 10% FBS [Sigma, Cat. no. F9665], 400 μg/ml G418 [Sigma, Cat. no. N1876] and 250 μg/ml Zeocin [Invitrogen, Cat. no. 46-0509]) according to the protocol provided by Euroscreen.
The assay measures the ability of test compounds to inhibit Histamine receptor agonist-induced decrease of intracellular free cAMP (receptor is Gi coupled).
Specifically, a cAMP quantification assay system from DiscoveRx (cAMP XS+; Cat. no. 90-0075) was used.
For the cAMP assay, confluent cells were detached from the culture vessels with 1× trypsin-EDTA solution (Sigma), and seeded into 384-well Costar plates (white, clear bottom, Cat. no. 3707) at a density of 10,000 cells per well. Cells were seeded in a volume of 50 μl in medium without antibiotics and incubated overnight in a humidified atmosphere with 5% CO2 at 37° C. The cAMP assay was performed according to the protocol provided by DiscoveRx.
The cell culture medium was removed and the cells washed once with PBS (50 μl per well). The plates were emptied by inversion and 7.5 μl/well of compound in PBS (containing 1 mM IBMX and 0.03% BSA) were added and incubated for 30 min at 37° C.
Subsequent 7.5 μl/well specific agonist solution was added and the plates for another 30 min incubated at 37° C.
hH3:100 nM histamine, 10 μM forskolin in PBS (containing 1 mM IBMX and 0.03% BSA)
After the incubation with the agonist, 5 μl/well cAMP XS antibody solution was added followed by 20 μl/well Gal/EII/Lysis (1:5:19)+ED (1:1). The plates were incubated for one hour at room temperature and afterwards 20 μl/well EA reagent was added. The luminescence was developed for approximately three hours at room temperature and the plates were read out using a ‘BMG Novostar’ plate reader.
Test compounds were assayed at 8 concentrations in triplicate. Serial 10-fold dilutions in 100% DMSO were made at a 100-times higher concentration than the final concentration and then diluted with a 2 step protocol in assay buffer to reach the required assay concentrations and 1% DMSO. […]
`CCc1cc(OC2CN(C(=O)N3CCCN(C4CCC4)CC3)C2)ccn1` [Example 54, 1-cyclobutyl-4-({3-[(2-ethylpyridin-4-yl)oxy]azetidin-1-yl}carbonyl)-1,4-diazepane]: the IC50 was less than 100 nM.
As to `O=C(N1CCCN(C2CCC2)CC1)N1CC(Oc2cccn3ccnc23)C1` [Example 70, 8-({1-[(4-cyclobutyl-1,4-diazepan-1-yl)carbonyl]azetidin-3-yl}oxy)imidazo[1,2-a]pyridine], the IC50 was less than 100 nM.
On to `CC(C)(O)c1ccc(OC2CN(C(=O)N3CCCN(C4CCC4)CC3)C2)cn1` [Example 118, 2-[5-({1-[(4-cyclobutyl-1,4-diazepan-1-yl)carbonyl]azetidin-3-yl}oxy)pyridin-2-yl]propan-2-ol], for which the IC50 was less than 100 nM.
The value for `N#Cc1ccccc1OC1CN(C(=O)N2CCCN(C3CCC3)CC2)C1` [Example 31, 2-({1-[(4-cyclobutyl-1,4-diazepan-1-yl)carbonyl]azetidin-3-yl}oxy)benzonitrile] was less than 100 nM.
For `CCc1cnc(OC2CN(C(=O)N3CCCN(C4CCC4)CC3)C2)nc1` [Example 162, 1-cyclobutyl-4-({3-[(5-ethylpyrimidin-2-yl)oxy]azetidin-1-yl}carbonyl)-1,4-diazepane] the value was 500 to 5000 nM; for `O=C(C1CC1)N1CCc2nc(OC3CN(C(=O)N4CCCN(C5CCC5)CC4)C3)ccc2C1` [Example 83, 2-({1-[(4-cyclobutyl-1,4-diazepan-1-yl)carbonyl]azetidin-3-yl}oxy)-6-(cyclopropylcarbonyl)-5,6,7,8-tetrahydro-1,6-naphthyridine], less than 100 nM; for `O=C(C1CN(C(=O)N2CCCN(C3CCC3)CC2)C1)N1CCCC1` [Example 127, 1-cyclobutyl-4-{[3-(pyrrolidin-1-ylcarbonyl)azetidin-1-yl]carbonyl}-1,4-diazepane], less than 100 nM.
The value for `N#Cc1ccc(CNC2CN(C(=O)N3CCCN(C4CCC4)CC3)C2)cc1` [Example 112, 4-[({1-[(4-cyclobutyl-1,4-diazepan-1-yl)carbonyl]azetidin-3-yl}amino)methyl]benzonitrile] was less than 100 nM.
In the case of `COc1cc(OC2CN(C(=O)N3CCCN(C4CCC4)CC3)C2)ccn1` [Example 56, 1-cyclobutyl-4-({3-[(2-methoxypyridin-4-yl)oxy]azetidin-1-yl}carbonyl)-1,4-diazepane], the IC50 was less than 100 nM.
As to `NC(=O)c1ccc(OC2CN(C(=O)N3CCCN(C4CCC4)CC3)C2)cn1` [Example 4, 5-({1-[(4-cyclobutyl-1,4-diazepan-1-yl)carbonyl]azetidin-3-yl}oxy)pyridine-2-carboxamide], the IC50 was less than 100 nM.
For `N#Cc1ccc(OC2CN(C(=O)N3CCCN(C4CCC4)CC3)C2)cc1` [Example 12, 4-({1-[(4-cyclobutyl-1,4-diazepan-1-yl)carbonyl]azetidin-3-yl}oxy)benzonitrile] the value was less than 100 nM.
For the molecule `Cc1cnc(C)c(OC2CN(C(=O)N3CCCN(C4CCC4)CC3)C2)n1` [Example 64, 1-cyclobutyl-4-({3-[(3,6-dimethylpyrazin-2-yl)oxy]azetidin-1-yl}carbonyl)-1,4-diazepane], the IC50 is less than 100 nM.
The value for `O=C(NC1CN(C(=O)N2CCCN(C3CCC3)CC2)C1)c1ccc(Cl)cc1` [Example 140, 4-chloro-N-{1-[(4-cyclobutyl-1,4-diazepan-1-yl)carbonyl]azetidin-3-yl}benzamide] was less than 100 nM; that for `COc1ccc(OC2CN(C(=O)N3CCCN(C4CCC4)CC3)C2)nc1` [Example 161, 1-cyclobutyl-4-({3-[(5-methoxypyridin-2-yl)oxy]azetidin-1-yl}carbonyl)-1,4-diazepane] was less than 100 nM; that for `COC(=O)C1CN(C(=O)N2CCCN(C3CCC3)CC2)C1` [Example 122, methyl 1-[(4-cyclobutyl-1,4-diazepan-1-yl)carbonyl]azetidine-3-carboxylate] was less than 100 nM.
In the case of `O=C(N1CCCN(C2CCC2)CC1)N1CC(Oc2ccncc2Cl)C1` [Example 67], the IC50 was less than 100 nM.

Usually IC50 stands for the concentration that gives 50% inhibition.
